Laboratory results from US20250326814A1, “MODIFIED OXYNTOMODULIN AND METHODS OF USE THEREOF” (OPKO BIOLOGICS LTD., priority 2024, published 2025).
One block for each compound: values may come before it. Non-standard residues stand in square brackets, D forms with d. Residues, ends and D or L forms follow the SMILES beside them. No end group written: not given here. *: point of attachment. X3 = O=C(O)CCCCCCCCCCCCCCCCCCC(=O)N[C@@H](CCC(=O)N[C@@H](CCC(=O)O)C(=O)NCCOCCOCC(=O)NCCOCCOCC(=O)NCCOCCOCC(=O)N[C@@H](CCCCNC(=O)C*)C(=O)NCC(=O)O)C(=O)O; X4 = O=C(O)CCCCCCCCCCCCCCCCC(=O)N[C@@H](CCC(=O)NCCOCCOCC(=O)NCCOCCOCC(=O)N[C@@H](CCCCNC(=O)C*)C(=O)NCC(=O)O)C(=O)O; Aib = CC(C)(N)C(=O)O

How the values were obtained:
[1] = target: T1, glucagon-like peptide-1 (GLP1) receptor (Homo sapiens, UniProt P43220); assay: GLP-1 activity EC50 of OXM analogs and GLP-1 therapeutics (Example 4, Table 9); type: cell-based; details: GLP-1 activity; Table 9; read-out: EC50
T1 construct: expressed in transfected cells; host or cells: CHO-K1
Excerpt: The potencies of the modified OXM analogs newly disclosed in the present application, the OXM Analog alone, and the PEGylated OXM analog were examined and compared by measuring the EC50 of both receptors, glucagon-like peptide-1 (GLP1) and glucagon (GCGR).

DIO mice [2] = assay: Body composition (fat and lean tissue mass) in DIO mice; type: in vivo
Experimental: The body composition of mice was assessed by an EchoMRI 3 in 1 Body composition analyzer (EchoMRI, US). Non-anaesthetized animals were placed in a plastic tube inside the MRI scanner for approximately 80 seconds. The body composition was reported as fat mass and fat free mass (lean mass).
(§1) Sixty C57BL/6JRj male mice were fed a high fat diet (60% HFD, D12492—Ssniff) for 20 weeks before treatment start. […] Body weight and food intake (24 h) were measured daily. In week 3, an OGTT study was performed. Baseline and preterminal fasting blood glucose and plasma insulin were assessed. Preterminal plasma TC and TG were assessed. Terminal endpoints included liver and heart weight, liver TC, TG, […] and lipid content (HE staining).

DIO mice [3] = assay: Liver H&E staining for lipid droplets / liver lipid in DIO mice; type: in vivo; details: 15 nmol/kg QD SC
Experimental: In summary, glass slides with paraffin embedded sections were deparaffinated in xylene and rehydrated in series of graded ethanol.
Slides treated with histochemical and immunohistochemical stains were scanned using a 20× objective in a ScanScope AT slide scanner (Aperio).
Hematoxylin & Eosin (H&E) staining: Sections of FFPE tissue were incubated in Mayer's Hematoxylin (Dako), washed in tap water, stained in Eosin Y solution (Sigma-Aldrich), dehydrated in graded ethanol and cover slipped.
as §1

DIO mice [4] = assay: Body weight and food intake in DIO mice, 4 weeks daily treatment; type: in vivo; details: for food consumption / cumulative food intake (FIG. 17B, 18B): OPK-88604 vs semaglutide; for cumulative food intake on day 28, P compared to Vehicle (FIG. 15): 15 nmol/kg q.d. SC, 4 weeks
Experimental: The animals were individually weighed and analyzed for lipid and cholesterol levels prior to treatment and following completion of the study. The levels of fasting glucose and insulin levels were analyzed, and oral glucose tolerance test was performed and compared between groups The levels of plasma triglycerides and cholesterol were evaluated at the end of study and compared to base levels prior to treatment. Levels of total cholesterol, triglycerides and glycogen were also examined at the end of study. Histology of liver was used to analyze for lipid droplets in the liver. All tests were conducted using routine methods known in the art.
The mice used in the studies were the gubra diet-induced obese (DIO) mouse model. This mouse model is fed a high fat diet that results in rapid weight gain. The DIO mice were based on male C57BI/6J mice and ready for experiment after 18 weeks on a 60% high fat diet.
To ensure accurate monitoring of weight changes over the course of the study, the animals were weighed daily with precision, prior to dosing at 7:00 AM. Body weight data was recorded in two formats: (1) Absolute measurements: The direct weight of the animal each day, and (2) Relative measurements: The weight expressed as a percentage relative to the body weight recorded on Day 1.
as §1

DIO mice [5] = assay: Fasting blood glucose and plasma insulin in DIO mice; type: in vivo; details: 15 nmol/kg q.d.
Experimental: (§2) For in vivo blood samples, tail-vein, tongue or cheek blood was collected in a Microvette tube of appropriate dimensions with anticoagulant and mixed by inversion 5 times. Blood was placed at 4° C. until centrifuged at 3000 g for 10 minutes. The plasma supernatants were transferred to new tubes and immediately frozen on dry ice. The samples were stored at −70° C.
Insulin: Blood samples were collected in heparinized tubes and plasma was separated and stored at −70° C. until analysis. Insulin was measured using the commercial MSD platform (Meso Scale Diagnostics).
as §1

DIO mice [6] = assay: Plasma cholesterol and triglyceride in DIO mice; type: in vivo; details: 15 nmol/kg q.d.
Experimental: as §2, with “termination” for “in vivo”, “during anesthesia with isoflurane, the abdominal cavity was opened, and cardiac” for “tail-vein, tongue or cheek”, “drawn with” for “collected in”, “syringe into a Microvette/Vacuette” for “Microvette tube”
Alanine transaminase (ALT), Aspartate transaminase (AST), Triglycerides (TG) and Total Cholesterol (TC): Blood samples were collected in heparinized tubes and plasma was separated and stored at −70° C. until analysis. Samples were measured using commercial kits (Roche Diagnostics), on the cobas c 501 autoanalyzer.
as §1

GLP1 = GLP1 (Homo sapiens, UniProt P43220); assay: CBA potency assay, GLP1 (Tables 10 and 11); type: cell-based
Excerpt: (§3) The impact of the longevity-enabling molecule (PEG Vs. FA-peptide/binder complex) on the peptide potency was studied.

GCGR = GCGR (Homo sapiens, UniProt P47871); assay: CBA potency assay, GCGR (Tables 10 and 11); type: cell-based
Sequence of GCGR (P47871 26-477): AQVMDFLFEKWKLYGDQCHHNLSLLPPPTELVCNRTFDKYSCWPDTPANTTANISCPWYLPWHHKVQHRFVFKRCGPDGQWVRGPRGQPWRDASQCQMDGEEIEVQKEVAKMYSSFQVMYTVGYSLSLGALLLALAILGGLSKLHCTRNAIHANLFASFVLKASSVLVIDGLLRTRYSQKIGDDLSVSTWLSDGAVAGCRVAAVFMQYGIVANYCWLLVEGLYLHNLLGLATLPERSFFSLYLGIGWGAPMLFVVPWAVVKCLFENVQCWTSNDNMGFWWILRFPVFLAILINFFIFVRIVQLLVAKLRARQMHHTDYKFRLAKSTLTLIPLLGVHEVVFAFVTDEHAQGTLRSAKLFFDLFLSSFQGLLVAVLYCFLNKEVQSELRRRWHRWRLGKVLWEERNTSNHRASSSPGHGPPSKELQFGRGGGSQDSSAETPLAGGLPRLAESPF
Excerpt: as §3

Sequence of GLP1 (P43220 24-463): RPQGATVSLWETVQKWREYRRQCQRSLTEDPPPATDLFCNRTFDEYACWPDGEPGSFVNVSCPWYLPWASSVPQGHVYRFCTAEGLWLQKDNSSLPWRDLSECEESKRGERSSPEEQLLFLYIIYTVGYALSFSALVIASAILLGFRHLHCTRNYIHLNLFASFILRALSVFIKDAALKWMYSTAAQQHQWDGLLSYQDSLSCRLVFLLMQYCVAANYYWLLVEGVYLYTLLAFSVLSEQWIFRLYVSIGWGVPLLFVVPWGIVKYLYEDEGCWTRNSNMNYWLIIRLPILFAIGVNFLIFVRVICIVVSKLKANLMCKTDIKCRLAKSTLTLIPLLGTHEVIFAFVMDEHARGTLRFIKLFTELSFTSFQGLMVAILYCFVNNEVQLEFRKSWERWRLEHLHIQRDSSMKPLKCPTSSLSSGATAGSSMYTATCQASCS
T1 sequence (P43220 24-463): as above

Compound: Semaglutide
change in lean tissue mass from baseline, P compared to Vehicle (FIG. 23B) (DIO mice [2]; 15 nmol/kg QD SC): < 0.05 | relative fat tissue mass / relative lean tissue mass at week 4, P compared to Vehicle (FIG. 22A, 22B) (DIO mice [2]; 15 nmol/kg QD SC): < 0.05 | relative lean body mass and fat mass change from baseline on day 28 (FIG. 24A, 24B) (DIO mice [2]; 15 nmol/kg daily, 28 days, OPK-88604 vs semaglutide): statistically similar | relative liver lipid / total liver lipid, P compared to Vehicle (FIG. 31A, 31B) (DIO mice [3]): < 0.05 | absolute body weight at day 28, P compared to Vehicle (FIG. 16A) (DIO mice [4]; 15 nmol/kg QD SC): < 0.01 | food consumption / cumulative food intake (FIG. 17B, 18B) (DIO mice [4]; 15 nmol/kg daily, 28 days): reduced food consumption significantly more than OPK-88604 treatment | weight loss from baseline (FIG. 17A, 18A) (DIO mice [4]; 15 nmol/kg daily, 28 days, OPK-88604 vs semaglutide vs placebo): similar | food consumption / cumulative food intake (FIG. 17B, 18B) (DIO mice [4]; 15 nmol/kg daily, 28 days, listed as semaglutide): significantly decreased | cumulative food intake on day 28, P compared to Vehicle (FIG. 15) (DIO mice [4]): < 0.05

Compound: Tirzepatide [reference compound]
absolute fat tissue mass at week 4, P compared to Vehicle (FIG. 21A) (DIO mice [2]; 15 nmol/kg QD SC): < 0.001 | relative fat tissue mass / relative lean tissue mass at week 4, P compared to Vehicle (FIG. 22A, 22B) (DIO mice [2]; 15 nmol/kg QD SC): < 0.001 | relative liver lipid / total liver lipid, P compared to Vehicle (FIG. 31A, 31B) (DIO mice [3]): < 0.01 | cumulative food intake on day 28, P compared to Vehicle (FIG. 15) (DIO mice [4]): < 0.001 | glucose tolerance plasma insulin at week 1, P compared to Vehicle (FIG. 36A) (DIO mice [5]): < 0.01 | glucose tolerance plasma insulin at week 4, P compared to Vehicle (FIG. 36B) (DIO mice [5]): < 0.01 | plasma triglyceride at termination, P compared to Vehicle (FIG. 32B) (DIO mice [6]): < 0.01

Compound: CC[C@H](C)[C@H](NC(=O)[C@H](CC(N)=O)NC(=O)[C@H](CC(N)=O)NC(=O)[C@H](CCCNC(=N)N)NC(=O)[C@H](CC(N)=O)NC(=O)[C@H](CCCNC(=N)N)NC(=O)CNC(=O)C(C)(C)NC(=O)[C@H](CC(N)=O)NC(=O)[C@H](CC(C)C)NC(=O)[C@H](CC(C)C)NC(=O)[C@H](Cc1c[nH]c2ccccc12)NC(=O)[C@H](CCC(N)=O)NC(=O)[C@@H](NC(=O)[C@H](Cc1ccccc1)NC(=O)[C@H](CCC(=O)O)NC(=O)[C@H](CCC(N)=O)NC(=O)[C@H](C)NC(=O)[C@H](CCCCN)NC(=O)[C@H](CCCCN)NC(=O)[C@H](CO)NC(=O)[C@H](CC(=O)O)NC(=O)[C@H](CC(C)C)NC(=O)[C@H](Cc1ccc(O)cc1)NC(=O)[C@H](CCCCN)NC(=O)[C@H](CO)NC(=O)[C@H](Cc1ccc(O)cc1)NC(=O)[C@H](CC(=O)O)NC(=O)[C@H](CO)NC(=O)[C@@H](NC(=O)[C@H](Cc1ccccc1)NC(=O)[C@@H](NC(=O)CNC(=O)[C@H](CCC(N)=O)NC(=O)C(C)(C)NC(=O)[C@@H](N)Cc1c[nH]cn1)[C@@H](C)O)[C@@H](C)O)C(C)C)C(=O)N[C@@H](C)C(=O)N[C@@H](CS)C(N)=O [MOD-604 KPI] (HELM PEPTIDE1{H.[Aib].Q.G.T.F.T.S.D.Y.S.K.Y.L.D.S.K.K.A.Q.E.F.V.Q.W.L.L.N.[Aib].G.R.N.R.N.N.I.A.C.[am]}$$$$V2.0)
EC50 [1]: 0.13 nM | % EC50 compare to KPI (GLP1) (GLP1; Table 10): 45% | Activity fold reduction compared to OPK-88003 KPI (GLP1) (GLP1; Table 10): 2.2 fold | EC50 (GLP1; Table 10): 0.282 nM | % EC50 compare to KPI (GCGR) (GCGR; Table 10): 72% | Activity fold reduction compared to OPK-88003 KPI (GCGR) (GCGR; Table 10): 1.4 fold | EC50 (GCGR; Table 10): 0.83 nM | EC50 ratio (GCGR\GLP-1R) (GCGR; Table 10): 2.9

Compound: OPK-88003 FA-conjugate: either the modified OXM of Formula XXII or the modified OXM of Formula XXIII (H[Aib]QGTFTSDYSKYLDSKKAQEFVQWLLN[Aib]GRNRNNIACC; not fully specified (C-terminus); also: fatty acid binder on Cys38 or Cys39, isomer not given here)
Activity fold reduction compared to OPK-88003 KPI (GLP1) (GLP1; Table 11, without HSA): non | EC50 ratio (GCGR\GLP-1R) (GCGR; Table 10): 7.6 | EC50 ratio (GCGR\GLP-1R) (GCGR; Table 11, + HSA): 23.3 | EC50 ratio (GCGR\GLP-1R) (GCGR; Table 11, without HSA): 15.2

The remaining lines, values ahead:

EC50 [1]: 0.1 nM
Compound: CC[C@H](C)[C@H](NC(=O)[C@H](CC(N)=O)NC(=O)[C@H](CC(N)=O)NC(=O)[C@H](CCCNC(=N)N)NC(=O)[C@H](CC(N)=O)NC(=O)[C@H](CCCNC(=N)N)NC(=O)CNC(=O)C(C)(C)NC(=O)[C@H](CC(N)=O)NC(=O)[C@H](CC(C)C)NC(=O)[C@H](CC(C)C)NC(=O)[C@H](Cc1c[nH]c2ccccc12)NC(=O)[C@H](CCC(N)=O)NC(=O)[C@@H](NC(=O)[C@H](Cc1ccccc1)NC(=O)[C@H](CCC(=O)O)NC(=O)[C@H](CCC(N)=O)NC(=O)[C@H](C)NC(=O)[C@H](CCCCN)NC(=O)[C@H](CCCCN)NC(=O)[C@H](CO)NC(=O)[C@H](CC(=O)O)NC(=O)[C@H](CC(C)C)NC(=O)[C@H](Cc1ccc(O)cc1)NC(=O)[C@H](CCCCN)NC(=O)[C@H](CO)NC(=O)[C@H](Cc1ccc(O)cc1)NC(=O)[C@H](CC(=O)O)NC(=O)[C@H](CO)NC(=O)[C@@H](NC(=O)[C@H](Cc1ccccc1)NC(=O)[C@@H](NC(=O)CNC(=O)[C@H](CCC(N)=O)NC(=O)C(C)(C)NC(=O)[C@@H](N)Cc1c[nH]cn1)[C@@H](C)O)[C@@H](C)O)C(C)C)C(=O)N[C@@H](C)C(=O)N[C@@H](CSCC(=O)NCCCC[C@H](NC(=O)COCCOCCNC(=O)COCCOCCNC(=O)CC[C@H](NC(=O)CCCCCCCCCCCCCCCCC(=O)O)C(=O)O)C(=O)NCC(=O)O)C(N)=O [Variant 2] (H-H[Aib]QGTFTSDYSKYLDSKKAQEFVQWLLN[Aib]GRNRNNIAC(X4)-NH2)

EC50 [1]: 0.15 nM
Compound: CC[C@H](C)[C@H](NC(=O)[C@H](CC(N)=O)NC(=O)[C@H](CC(N)=O)NC(=O)[C@H](CCCNC(=N)N)NC(=O)[C@H](CC(N)=O)NC(=O)[C@H](CCCNC(=N)N)NC(=O)CNC(=O)C(C)(C)NC(=O)[C@H](CC(N)=O)NC(=O)[C@H](CC(C)C)NC(=O)[C@H](CC(C)C)NC(=O)[C@H](Cc1c[nH]c2ccccc12)NC(=O)[C@H](CCC(N)=O)NC(=O)[C@@H](NC(=O)[C@H](Cc1ccccc1)NC(=O)[C@H](CCC(=O)O)NC(=O)[C@H](CCC(N)=O)NC(=O)[C@H](C)NC(=O)[C@H](CCCCN)NC(=O)[C@H](CCCCN)NC(=O)[C@H](CO)NC(=O)[C@H](CC(=O)O)NC(=O)[C@H](CC(C)C)NC(=O)[C@H](Cc1ccc(O)cc1)NC(=O)[C@H](CCCCN)NC(=O)[C@H](CO)NC(=O)[C@H](Cc1ccc(O)cc1)NC(=O)[C@H](CC(=O)O)NC(=O)[C@H](CO)NC(=O)[C@@H](NC(=O)[C@H](Cc1ccccc1)NC(=O)[C@@H](NC(=O)CNC(=O)[C@H](CCC(N)=O)NC(=O)C(C)(C)NC(=O)[C@@H](N)Cc1c[nH]cn1)[C@@H](C)O)[C@@H](C)O)C(C)C)C(=O)N[C@@H](C)C(=O)N[C@@H](CSCC(=O)NCCCC[C@H](NC(=O)COCCOCCNC(=O)COCCOCCNC(=O)COCCOCCNC(=O)[C@H](CCC(=O)O)NC(=O)CC[C@H](NC(=O)CCCCCCCCCCCCCCCCCCC(=O)O)C(=O)O)C(=O)NCC(=O)O)C(N)=O [Variant 3] (H-H[Aib]QGTFTSDYSKYLDSKKAQEFVQWLLN[Aib]GRNRNNIAC(X3)-NH2)
